Source: US10344065B2, “Method for treating Alzheimer's disease and method for downregulating protein aggregation in brain” (National Cheng Kung University, priority 2017, dated 2019)

What was measured:
Format in all cases: in vivo, mouse
[1] = test system: 3×Tg mice; experiment: Novel object recognition test; details: vs sham
Method: All experiments were carried out in accordance with the National Institutes of Health Guidelines for animal research (Guide for the Care and Use of Laboratory Animal) and approved by the National Cheng Kung University Institutional Animal Care and Use Committee. The 3×Tg mice (B6; 129-Psen1tm1Mpm Tg[APPSwe, tauP301L]1Lfa/Mmjax), were obtained from the Jackson Laboratory (Bar Harbor, […], USA) and housed in a controlled room (temperature 23±1° C., humidity 55±5%, 12-hour light/12-hour dark cycle, light cycle begins at 06:00) located in the Laboratory Animal Center of National Cheng Kung University (Tainan, Taiwan) with unrestricted access to food and water. All mice were genotyped using a protocol provided by the Jackson Laboratory. The 3×Tg mice develop intracellular Aβ immuno-positive staining as early as 3-4 months and aggregates of hyperphosphorylated tau in the hippocampus around 12 months of age. Impaired synaptic transmission and long-term potentiation are evident about 6 months of age. At the age of 10 months (body weight, 31˜35 g), five 3×Tg mice received four consecutive weekly injections of Zfra4-10 solution (2 mM in phosphate buffered saline [PBS], 100 μL each injection) from the tail veins. […]
The experiment was performed from 6 PM each day. […] The cumulative times spent by the mouse in exploring each of the objects were recorded during a 5-minute period. […] The times spent in exploring each object during a 5-minute period were recorded in either the STM or the LTM test. […]
All experimental results were represented as mean±standard error of the mean. The results for novel object recognition test, probe test of Morris water maze, relative ventricle area, and relative optical density of pS412-tau immunoreactivity were analyzed by two-tailed Mann-Whitney test, whereas the Aβ-positive cell number was analyzed by two-tailed unpaired t-test. The Morris water maze learning section results were analyzed using a repeated mixed-model analysis of variance with training session as within-subject factor and the Zfra injection as between-subject factor. […]

[2] = test system: pyramidal neurons in the hippocampi; experiment: Melanoma B16F10-induced neurodegeneration in nude mice; details: hippocampi of nude mice pretreated 3 consecutive weeks via tail veins, then B16F10 inoculated
Method: FIG. 4 includes photos showing that Zfra suppresses melanoma B16F10-mediated neurodegeneration in the hippocampus. Nude mice were preinjected with 100 μL, of sterile Milli-Q water or Zfra4-10 (1 mM in sterile water) in 3 consecutive weeks. After treatment for a week, these mice were inoculated with melanoma B16F10 cells on both flanks (2×10^5 cells in 100-μL, PBS). Mice were sacrificed when the tumor sizes grew up to 2000-3000 mm^3 in about a month. (A) Zfra blocked neurodegeneration in the hippocampus (top panel) and prevented the formation of TPC6AΔ plaques in the cortex (bottom panel), which negatively correlates with pS14-WWOX expression. Note the presence of condensed apoptotic nuclei in the hippocampal neurons in the control mice, (B) Metastasis of B16F10 cells to the lung was blocked in Zfra-treated mice. Compared to controls, Zfra suppressed p-S14WWOX expression in the lung by ˜72% suppression (three sections). […] (C and D) The non-spatial learning and memory were determined by novel object recognition task for both 3×Tg and Wwox+/− mice. […]
Six- to eight-week-old male nude (BALB/cAnN.Cg-Foxn1^nu/CrlNarl) mice (National Laboratory Animal Center, Taiwan) were used. […] Tumor volumes were measured daily and calculated using the equation, D×(d)^2/2, where D and d are the major and minor diameters, respectively. […] Z-cell distribution in organs was determined under fluorescence microscopy.

[3] = test system: WWOX; experiment: WWOX phosphorylation in melanoma-bearing nude mice; details: B16F10-bearing nude mice, n=3
Method: FIG. 4 includes photos showing that Zfra suppresses melanoma B16F10-mediated neurodegeneration in the hippocampus. Nude mice were preinjected with 100 μL, of sterile Milli-Q water or Zfra4-10 (1 mM in sterile water) in 3 consecutive weeks. After treatment for a week, these mice were inoculated with melanoma B16F10 cells on both flanks (2×10^5 cells in 100-μL, PBS). Mice were sacrificed when the tumor sizes grew up to 2000-3000 mm^3 in about a month. (A) Zfra blocked neurodegeneration in the hippocampus (top panel) and prevented the formation of TPC6AΔ plaques in the cortex (bottom panel), which negatively correlates with pS14-WWOX expression. Note the presence of condensed apoptotic nuclei in the hippocampal neurons in the control mice, (B) Metastasis of B16F10 cells to the lung was blocked in Zfra-treated mice. Compared to controls, Zfra suppressed p-S14WWOX expression in the lung by ˜72% suppression (three sections). […] (C and D) The non-spatial learning and memory were determined by novel object recognition task for both 3×Tg and Wwox+/− mice. […] Also, see data in FIG. 1.
Six- to eight-week-old male nude (BALB/cAnN.Cg-Foxn1^nu/CrlNarl) mice (National Laboratory Animal Center, Taiwan) were used. Mice were intravenously injected into tail veins with 100 μL of Zfra1-31 or Zfra4-10 (2 mM), or sterile water. After injection for 1-8 weeks, mouse melanoma B16F10 or human glioma 13-06-MG cells (2-2.5×10^6 cells/100-μL saline) were then inoculated in subcutaneous sites at both flanks. Tumor volumes were measured daily and calculated using the equation, D×(d)^2/2, where D and d are the major and minor diameters, respectively. At indicated time point, mouse organs, including brain, lung, spleen, and liver, were harvested and fixed with 4% paraformaldehyde. IHC was carried out using indicated specific antibodies to determine protein expression in tissues and organs. Where indicated, TMR-Zfra was used to stain spleen, brain, and lung tissues. Z-cell distribution in organs was determined under fluorescence microscopy.

Substance: RRSSSCK [Zfra4-10, truncated zinc finger-like peptide, amino acids 4-10 of Zfra]
- exploring times of the novel object, short-term memory task ([1]; 3×Tg mice, 2 hours after acquisition, P=0.074): marginal, but not significant, increase
- novel object exploring times, long-term memory task ([1]; 3×Tg mice, 24 hours after acquisition, P=0.008): significantly higher
- exploring times on each object, acquisition phase ([1]; 11-month-old 3×Tg mice, one week after four weekly tail vein injections (2 mM, 100 μL), 5-minute acquisition, P>0.5): approximately equal exploring times on each object
- apoptotic nuclei [2]: 0±1%
- suppression of Ser14 phosphorylation of WWOX (pS14-WWOX) ([3]; brain (hippocampus)): 87±5%
- suppression of Tyr33 phosphorylation in WWOX ([3]; brain): 2±6%
- suppression of phosphorylation in Tyr33 in WWOX in the lung ([3]; lung): 5±3%
